Data taken from the NIST ThermoML archive (doi:10.1021/je900387e).

Test: xn = mol fraction of the nth substance listed
Conditions: Liquid, Pycnometric method

CCCCCl [1-chlorobutane] + O=C=O
Conditions	mass density [kg/m3]
327.6 K, 14940 kPa, x1 = 0.0981	822
327.6 K, 15140 kPa, x1 = 0.0981	825
332.4 K, 9070 kPa, x1 = 0.1488	732
332.4 K, 9260 kPa, x1 = 0.1488	737
332.4 K, 9420 kPa, x1 = 0.1488	740
332.4 K, 9430 kPa, x1 = 0.0981	649
332.4 K, 9510 kPa, x1 = 0.0981	654
332.4 K, 9560 kPa, x1 = 0.0981	657
332.4 K, 9590 kPa, x1 = 0.1488	744
332.4 K, 9660 kPa, x1 = 0.0981	663
332.4 K, 9750 kPa, x1 = 0.0483	421
332.4 K, 9760 kPa, x1 = 0.0981	669
332.4 K, 9760 kPa, x1 = 0.1488	748
332.4 K, 9800 kPa, x1 = 0.0483	426
332.4 K, 9860 kPa, x1 = 0.0483	433
332.4 K, 9870 kPa, x1 = 0.0981	675
332.4 K, 9910 kPa, x1 = 0.0483	441
332.4 K, 9940 kPa, x1 = 0.1488	751
332.4 K, 9970 kPa, x1 = 0.0483	449
332.4 K, 10000 kPa, x1 = 0.0981	682
332.4 K, 10050 kPa, x1 = 0.0483	458
332.4 K, 10130 kPa, x1 = 0.0981	687
332.4 K, 10130 kPa, x1 = 0.1488	755
332.4 K, 10150 kPa, x1 = 0.0483	469
332.4 K, 10200 kPa, x1 = 0.0483	478
332.4 K, 10280 kPa, x1 = 0.0483	487
332.4 K, 10290 kPa, x1 = 0.0981	694
332.4 K, 10340 kPa, x1 = 0.1488	758
332.4 K, 10390 kPa, x1 = 0.0483	497
332.4 K, 10470 kPa, x1 = 0.0981	700
332.4 K, 10490 kPa, x1 = 0.0483	507
332.4 K, 10570 kPa, x1 = 0.1488	762
332.4 K, 10590 kPa, x1 = 0.0483	518
332.4 K, 10650 kPa, x1 = 0.0981	707
332.4 K, 10700 kPa, x1 = 0.0483	529
332.4 K, 10800 kPa, x1 = 0.1488	766
332.4 K, 10830 kPa, x1 = 0.0483	541
332.4 K, 10850 kPa, x1 = 0.0981	713
332.4 K, 10970 kPa, x1 = 0.0483	554
332.4 K, 11030 kPa, x1 = 0.1488	770
332.4 K, 11080 kPa, x1 = 0.0981	720
332.4 K, 11140 kPa, x1 = 0.0483	569
332.4 K, 11280 kPa, x1 = 0.1488	774
332.4 K, 11330 kPa, x1 = 0.0981	727
332.4 K, 11350 kPa, x1 = 0.0483	584
332.4 K, 11560 kPa, x1 = 0.0483	598
332.4 K, 11570 kPa, x1 = 0.1488	778
332.4 K, 11590 kPa, x1 = 0.0981	734
332.4 K, 11830 kPa, x1 = 0.0483	613
332.4 K, 11840 kPa, x1 = 0.1488	782
332.4 K, 11980 kPa, x1 = 0.0981	743
332.4 K, 12120 kPa, x1 = 0.0483	629
332.4 K, 12300 kPa, x1 = 0.0483	637
332.4 K, 12330 kPa, x1 = 0.1488	788
332.4 K, 12430 kPa, x1 = 0.0981	753
332.4 K, 12530 kPa, x1 = 0.0483	648
332.4 K, 12610 kPa, x1 = 0.0483	652
332.4 K, 12820 kPa, x1 = 0.1488	794
332.4 K, 12960 kPa, x1 = 0.0981	763
332.4 K, 13360 kPa, x1 = 0.1488	800
332.4 K, 13540 kPa, x1 = 0.0981	774
332.4 K, 13940 kPa, x1 = 0.1488	806
332.4 K, 14190 kPa, x1 = 0.0981	785
332.4 K, 14570 kPa, x1 = 0.1488	813
332.4 K, 14840 kPa, x1 = 0.1488	816
332.4 K, 14900 kPa, x1 = 0.0981	795
332.4 K, 15110 kPa, x1 = 0.0981	798
333.3 K, 9630 kPa, x1 = 0.0744	545
333.3 K, 9660 kPa, x1 = 0.0744	551
333.3 K, 9690 kPa, x1 = 0.0744	556
333.3 K, 9740 kPa, x1 = 0.0744	563
333.3 K, 9810 kPa, x1 = 0.0744	571
333.3 K, 9900 kPa, x1 = 0.0744	578
333.3 K, 9980 kPa, x1 = 0.0744	586
333.3 K, 10100 kPa, x1 = 0.0744	597
333.3 K, 10250 kPa, x1 = 0.0744	608
333.3 K, 10410 kPa, x1 = 0.0744	620
333.3 K, 10600 kPa, x1 = 0.0744	632
333.3 K, 10840 kPa, x1 = 0.0744	645
333.3 K, 11110 kPa, x1 = 0.0744	658
333.3 K, 11420 kPa, x1 = 0.0744	672
333.3 K, 11800 kPa, x1 = 0.0744	686
333.3 K, 12260 kPa, x1 = 0.0744	701
333.3 K, 12810 kPa, x1 = 0.0744	717
333.3 K, 13470 kPa, x1 = 0.0744	733
333.3 K, 14290 kPa, x1 = 0.0744	750
333.3 K, 14750 kPa, x1 = 0.0744	759
333.3 K, 15240 kPa, x1 = 0.0744	768
337.4 K, 9620 kPa, x1 = 0.1488	705
337.4 K, 9770 kPa, x1 = 0.1488	709
337.4 K, 9890 kPa, x1 = 0.0981	605
337.4 K, 9930 kPa, x1 = 0.0744	509
337.4 K, 9950 kPa, x1 = 0.1488	714
337.4 K, 9960 kPa, x1 = 0.0483	378
337.4 K, 9960 kPa, x1 = 0.0744	513
337.4 K, 9980 kPa, x1 = 0.0981	612
337.4 K, 10010 kPa, x1 = 0.0744	520
337.4 K, 10040 kPa, x1 = 0.0483	384
337.4 K, 10070 kPa, x1 = 0.0981	619
337.4 K, 10080 kPa, x1 = 0.0744	527
337.4 K, 10090 kPa, x1 = 0.0483	390
337.4 K, 10150 kPa, x1 = 0.0981	625
337.4 K, 10150 kPa, x1 = 0.1488	719
337.4 K, 10160 kPa, x1 = 0.0483	396
337.4 K, 10180 kPa, x1 = 0.0744	536
337.4 K, 10230 kPa, x1 = 0.0483	402
337.4 K, 10250 kPa, x1 = 0.0981	632
337.4 K, 10280 kPa, x1 = 0.0744	547
337.4 K, 10290 kPa, x1 = 0.0483	409
337.4 K, 10360 kPa, x1 = 0.0483	415
337.4 K, 10360 kPa, x1 = 0.0981	639
337.4 K, 10360 kPa, x1 = 0.1488	724
337.4 K, 10420 kPa, x1 = 0.0483	422
337.4 K, 10420 kPa, x1 = 0.0744	560
337.4 K, 10490 kPa, x1 = 0.0483	429
337.4 K, 10500 kPa, x1 = 0.0981	647
337.4 K, 10550 kPa, x1 = 0.0744	571
337.4 K, 10570 kPa, x1 = 0.0483	436
337.4 K, 10580 kPa, x1 = 0.1488	729
337.4 K, 10630 kPa, x1 = 0.0981	654
337.4 K, 10650 kPa, x1 = 0.0483	444
337.4 K, 10700 kPa, x1 = 0.0744	583
337.4 K, 10730 kPa, x1 = 0.0483	452
337.4 K, 10790 kPa, x1 = 0.0981	662
337.4 K, 10820 kPa, x1 = 0.0483	459
337.4 K, 10840 kPa, x1 = 0.1488	735
337.4 K, 10870 kPa, x1 = 0.0744	595
337.4 K, 10900 kPa, x1 = 0.0483	468
337.4 K, 10960 kPa, x1 = 0.0981	670
337.4 K, 10990 kPa, x1 = 0.0483	477
337.4 K, 11060 kPa, x1 = 0.0744	607
337.4 K, 11090 kPa, x1 = 0.0483	485
337.4 K, 11090 kPa, x1 = 0.1488	740
337.4 K, 11170 kPa, x1 = 0.0981	678
337.4 K, 11190 kPa, x1 = 0.0483	495
337.4 K, 11270 kPa, x1 = 0.0483	501
337.4 K, 11270 kPa, x1 = 0.0744	620
337.4 K, 11340 kPa, x1 = 0.0483	508
337.4 K, 11380 kPa, x1 = 0.0981	686
337.4 K, 11380 kPa, x1 = 0.1488	746
337.4 K, 11440 kPa, x1 = 0.0483	516
337.4 K, 11510 kPa, x1 = 0.0483	521
337.4 K, 11520 kPa, x1 = 0.0744	634
337.4 K, 11640 kPa, x1 = 0.0981	694
337.4 K, 11680 kPa, x1 = 0.1488	751
337.4 K, 11830 kPa, x1 = 0.0744	648
337.4 K, 11930 kPa, x1 = 0.0981	703
337.4 K, 12030 kPa, x1 = 0.1488	757
337.4 K, 12200 kPa, x1 = 0.0744	663
337.4 K, 12240 kPa, x1 = 0.0981	711
337.4 K, 12380 kPa, x1 = 0.1488	762
337.4 K, 12580 kPa, x1 = 0.0981	721
337.4 K, 12630 kPa, x1 = 0.0744	679
337.4 K, 12750 kPa, x1 = 0.1488	768
337.4 K, 12950 kPa, x1 = 0.0981	729
337.4 K, 13160 kPa, x1 = 0.0744	695
337.4 K, 13180 kPa, x1 = 0.1488	774
337.4 K, 13380 kPa, x1 = 0.0981	739
337.4 K, 13450 kPa, x1 = 0.1488	778
337.4 K, 13780 kPa, x1 = 0.1488	781
337.4 K, 13800 kPa, x1 = 0.0744	713
337.4 K, 14110 kPa, x1 = 0.0981	753
337.4 K, 14120 kPa, x1 = 0.1488	786
337.4 K, 14480 kPa, x1 = 0.1488	790
337.4 K, 14580 kPa, x1 = 0.0744	731
337.4 K, 14830 kPa, x1 = 0.1488	794
337.4 K, 14970 kPa, x1 = 0.0981	768
337.4 K, 15140 kPa, x1 = 0.0744	742
337.4 K, 15300 kPa, x1 = 0.0981	774
